Reference: PMC4844176 (Xenobiotica; the fate of foreign compounds in biological …, 2015)
≈ marks a conversion by molar mass, not a printed value. Where “and” joins values, the source holds several entries; their conditions need not be identical. Equal entries are not always repeated.

Columns and labels:
[1] = Aqueous solubility of aprepitant; assay type: physicochemical; details: aqueous medium
UGT2B7 = molecular target: T1, UGT2B7 (Homo sapiens, UniProt P16662); assay: biochemical
T1 sequence (P16662 24-529): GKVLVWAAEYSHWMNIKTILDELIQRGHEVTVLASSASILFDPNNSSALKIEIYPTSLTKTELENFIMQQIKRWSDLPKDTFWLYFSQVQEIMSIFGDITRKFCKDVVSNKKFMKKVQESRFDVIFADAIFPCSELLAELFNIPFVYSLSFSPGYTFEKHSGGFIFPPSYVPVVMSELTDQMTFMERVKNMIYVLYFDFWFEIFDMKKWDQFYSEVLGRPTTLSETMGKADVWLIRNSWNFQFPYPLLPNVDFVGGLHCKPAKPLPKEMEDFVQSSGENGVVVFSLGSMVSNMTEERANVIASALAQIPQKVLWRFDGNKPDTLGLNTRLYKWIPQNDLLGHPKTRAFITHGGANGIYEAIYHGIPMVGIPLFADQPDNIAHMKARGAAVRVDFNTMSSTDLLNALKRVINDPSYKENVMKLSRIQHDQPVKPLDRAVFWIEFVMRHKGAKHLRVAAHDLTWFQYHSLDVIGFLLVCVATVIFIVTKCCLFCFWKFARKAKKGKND

[2] = ref Lasseter et al., 2007, Takahashi et al., 2011; cited from earlier work
[3] = tested on: UGTs in human intestinal microsomes (HIM); assay: in vitro; details: pH 7.5
in vitro = details: human, microsomes, pH 7.5
UGT1A8 = molecular target: T2, UGT1A8 (Homo sapiens, UniProt Q9HAW9)
T2 sequence (Q9HAW9 26-530): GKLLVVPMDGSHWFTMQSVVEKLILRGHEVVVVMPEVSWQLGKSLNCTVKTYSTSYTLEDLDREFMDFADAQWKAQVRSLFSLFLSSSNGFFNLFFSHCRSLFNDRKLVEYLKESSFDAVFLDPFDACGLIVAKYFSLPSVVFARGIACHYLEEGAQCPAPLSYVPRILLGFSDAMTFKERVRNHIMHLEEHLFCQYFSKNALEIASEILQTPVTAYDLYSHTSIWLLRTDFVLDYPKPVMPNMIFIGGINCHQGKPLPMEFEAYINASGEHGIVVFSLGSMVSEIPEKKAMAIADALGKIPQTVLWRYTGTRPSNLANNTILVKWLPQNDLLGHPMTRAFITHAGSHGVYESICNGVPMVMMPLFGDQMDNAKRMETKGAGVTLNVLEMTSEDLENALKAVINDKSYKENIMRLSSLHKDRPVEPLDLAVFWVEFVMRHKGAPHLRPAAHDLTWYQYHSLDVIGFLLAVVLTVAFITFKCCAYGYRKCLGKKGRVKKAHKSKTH

UGT1A7 = molecular target: T3, UGT1A7 (Homo sapiens, UniProt Q9HAW7); assay: Screening for aprepitant glucuronidation, UGT1A7 Supersomes; assay type: in vitro ADME; details: UGT1A7, 5 and 250 µM aprepitant
T3 sequence (Q9HAW7 26-530): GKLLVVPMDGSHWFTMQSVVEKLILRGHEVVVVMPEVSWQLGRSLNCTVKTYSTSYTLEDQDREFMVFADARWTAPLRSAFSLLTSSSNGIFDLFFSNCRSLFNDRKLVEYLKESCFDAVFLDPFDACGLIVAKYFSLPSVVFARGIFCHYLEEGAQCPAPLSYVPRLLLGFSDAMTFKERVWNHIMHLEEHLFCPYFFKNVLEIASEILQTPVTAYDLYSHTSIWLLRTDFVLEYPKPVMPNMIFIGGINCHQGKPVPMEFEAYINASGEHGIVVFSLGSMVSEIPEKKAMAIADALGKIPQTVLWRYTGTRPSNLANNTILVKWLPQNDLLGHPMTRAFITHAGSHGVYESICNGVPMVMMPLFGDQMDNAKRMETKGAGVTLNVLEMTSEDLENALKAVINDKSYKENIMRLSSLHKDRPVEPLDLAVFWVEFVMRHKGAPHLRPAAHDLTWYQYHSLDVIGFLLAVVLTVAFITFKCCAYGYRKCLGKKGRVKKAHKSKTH

other UGTs = assay: Inhibition by aprepitant of other UGTs; assay type: in vitro ADME, human; details: 1 µM aprepitant, UGTs other than UGT2B7
UGT1A6 = molecular target: T4, UGT1A6 (Homo sapiens, UniProt P19224); assay: Screening for aprepitant glucuronidation, UGT1A6 Supersomes; assay type: in vitro ADME; details: UGT1A6, 5 and 250 µM aprepitant
T4 sequence (P19224 27-532): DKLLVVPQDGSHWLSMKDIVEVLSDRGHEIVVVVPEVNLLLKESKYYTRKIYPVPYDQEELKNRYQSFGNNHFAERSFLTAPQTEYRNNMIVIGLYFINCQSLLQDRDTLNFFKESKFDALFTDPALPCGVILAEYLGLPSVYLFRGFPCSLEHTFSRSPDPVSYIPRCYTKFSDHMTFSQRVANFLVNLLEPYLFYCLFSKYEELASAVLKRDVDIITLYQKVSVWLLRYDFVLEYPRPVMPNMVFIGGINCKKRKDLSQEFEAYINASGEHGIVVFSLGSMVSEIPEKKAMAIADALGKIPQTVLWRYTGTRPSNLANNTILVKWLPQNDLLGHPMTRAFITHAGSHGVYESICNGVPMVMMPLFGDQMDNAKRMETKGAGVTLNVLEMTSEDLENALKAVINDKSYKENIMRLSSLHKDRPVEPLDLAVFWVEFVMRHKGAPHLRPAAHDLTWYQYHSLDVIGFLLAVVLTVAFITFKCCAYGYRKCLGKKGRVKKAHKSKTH

Compound: C[C@@H](O[C@H]1OCCN(Cc2n[nH]c(=O)[nH]2)[C@H]1c1ccc(F)cc1)c1cc(C(F)(F)F)cc(C(F)(F)F)c1 [aprepitant, Aprepitant]
- solubility [1]: ~250 µM (≈ 134 µg/mL)
- Ki (UGT2B7): ~10 µM and 7.4 µM and 16.3 µM and 6.7 µM
- systemic circulation concentration in patients [2]: approximately 5 µM
- Km at 60 min [3]: 63 ± 5 µM
- microsomal CLint (in vitro): 5600 µL/min/mg
- Vmax (UGT1A8; UGT1A8, mean ± SE): 683 ± 69 fmol/min/mg protein
- n (Hill coefficient) (UGT1A8; UGT1A8, mean ± SE): 1.2 ± 0.1
- velocity of AP-G formation (UGT1A8; human, 60 min, 250 µM, pH 7.5): 391 ± 10.6 fmol/min/mg protein
- CLint (UGT1A8; human, recombinant enzyme, pH 7.5): 3.5 µl/min/µg protein
- AP-G formation (UGT1A7): not detected
- inhibition of other UGTs (other UGTs): < 10%
- AP-G formation (UGT1A6): not detected
